Measurements as given in US8227491B2, “5-(3,4-dichloro-phenyl)-N-(2-hydroxy-cyclohexyl)-6-(2,2,2-trifluoro-ethoxy)-nicotinamide and salts thereof” (Hoffmann-La Roche Inc., priority 2009, dated 2012).

Key:
[1] = biological target: T1, human cannabis CB2 receptor (Homo sapiens, UniProt P34972); experiment: CB2 receptor affinity, [3H]-CP-55,940 radioligand binding on HEK cell membranes; conditions: Ki calculated from IC50 (Cheng-Prusoff)
T1 construct: expressed in transfected cells; host or cells: human embryonic kidney (HEK) cells, Semliki Forest Virus system, membrane preparations
T1 sequence (P34972 whole entry): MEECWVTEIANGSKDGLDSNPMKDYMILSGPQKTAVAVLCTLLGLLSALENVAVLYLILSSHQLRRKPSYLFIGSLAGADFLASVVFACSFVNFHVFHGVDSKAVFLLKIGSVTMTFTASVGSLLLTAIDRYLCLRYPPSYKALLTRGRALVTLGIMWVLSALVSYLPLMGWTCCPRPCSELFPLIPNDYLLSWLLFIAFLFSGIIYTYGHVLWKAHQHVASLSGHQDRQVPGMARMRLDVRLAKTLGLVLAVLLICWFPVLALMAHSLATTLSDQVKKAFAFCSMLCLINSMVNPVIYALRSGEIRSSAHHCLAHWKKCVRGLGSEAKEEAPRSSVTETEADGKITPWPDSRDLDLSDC
Experimental: (§1) The affinity of the compounds of the invention for cannabinoid CB2 receptors was determined using membrane preparations of human embryonic kidney (HEK) cells in which the human cannabis CB2 receptor is transiently transfected using the Semliki Forest Virus system in conjunction with [3H]-CP-55,940 as radioligand. After incubation of freshly prepared cell membrane preparation with the [3H]-ligand, with or without addition of compounds of the invention, separation of bound and free ligand was performed by filtration over glass fiber filters. Radioactivity on the filter was measured by scintillation counting.
(§2) Ki values were calculated from the IC50 using the Cheng-Prusoff equation.

[2] = biological target: T2, human cannabis CB1 receptor (Homo sapiens, UniProt P21554); experiment: CB1 receptor affinity, [3H]-CP-55,940 radioligand binding on HEK cell membranes; conditions: Ki calculated from IC50 (Cheng-Prusoff)
T2 construct: expressed in transfected cells; host or cells: human embryonic kidney (HEK) cells, Semliki Forest Virus system, membrane preparations
T2 sequence (P21554 whole entry): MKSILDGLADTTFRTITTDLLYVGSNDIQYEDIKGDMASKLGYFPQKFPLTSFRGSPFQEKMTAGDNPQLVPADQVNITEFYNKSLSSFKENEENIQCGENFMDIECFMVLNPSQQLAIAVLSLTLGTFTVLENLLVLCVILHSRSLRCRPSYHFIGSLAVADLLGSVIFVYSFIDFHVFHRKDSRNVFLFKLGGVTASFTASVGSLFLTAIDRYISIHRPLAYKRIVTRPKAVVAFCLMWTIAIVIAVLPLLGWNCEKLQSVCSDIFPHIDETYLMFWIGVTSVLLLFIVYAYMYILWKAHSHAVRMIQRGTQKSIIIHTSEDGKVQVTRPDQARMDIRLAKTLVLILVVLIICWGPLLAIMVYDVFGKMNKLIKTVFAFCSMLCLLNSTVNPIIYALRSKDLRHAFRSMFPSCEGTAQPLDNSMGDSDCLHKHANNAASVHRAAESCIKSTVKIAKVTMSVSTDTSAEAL
Experimental: as §1, with “cannabinoid” for “cannabinoid CB2”, “CB1” for “CB2”
as §2

[3] = test system: HDL cholesterol levels; experiment: Effects on plasma lipid levels in hamsters; format: in vivo; conditions: male hamsters, 30 mg/kg p.o. once daily for five days, blood 2 hours after final treatment, 4 hour-fasted
Experimental: Efficacy of compounds in modulating plasma lipid levels was determined in hamsters after 5 days of daily administration of compounds. Male hamsters of 6-8 weeks of age were used in the studies. After one week of acclimation, blood samples were collected from 4 hour-fasted animals for plasma lipid determination. Animals were then assigned to treatment groups based on HDL-cholesterol levels. Compounds were administered by gavage, once daily for five days. Control animals received vehicle alone. Blood was collected on day five from 4 hour-fasted hamsters, 2 hours after a final treatment, for plasma lipid analysis. Total cholesterol, HDL-cholesterol, LDL-cholesterol, and triglycerides were determined using colorimetric enzymatic assays (Roche Diagnostic GmbH, Mannheim, Germany). HDL-cholesterol was also determined after selective precipitation of HDL from plasma by standard procedures.

Row | Ki [1] [µM] | Ki [2] [µM] | SMILES | HDL Cholesterol levels [as % compared to control] @ 30 mg/kg p.o. of compound [3]
1 | > 10 | > 10 | O=C(N[C@H]1CCCC[C@H]1O)c1cnc(OCC(F)(F)F)c(-c2ccc(Cl)c(Cl)c2)c1 [5-(3,4-Dichloro-phenyl)-N-((1S,2R)-2-hydroxy-cyclohexyl)-6-(2,2,2-trifluoro-ethoxy)-nicotinamide] | +121.9 ± 21.0%
2 | > 10 | 1.3 | O=C(N[C@@H]1CCCC[C@H]1O)c1cnc(OCC(F)(F)F)c(-c2ccc(Cl)c(Cl)c2)c1 [5-(3,4-dichloro-phenyl)-N-((1R,2R)-2-hydroxy-cyclohexyl)-6-(2,2,2-trifluoro-ethoxy)-nicotinamide] | +77.9 ± 11.1%
3 | > 10 | 0.028 | O=C(N[C@@H]1CCCC[C@H]1O)c1cnc(OCC(F)(F)F)c(-c2ccc(Cl)cc2)c1 [5-(4-Chloro-phenyl)-N-((1R,2R)-2-hydroxy-cyclohexyl)-6-(2,2,2-trifluoro-ethoxy)-nicotinamide, reference compound] | +103.8 ± 14.7%
